Data published in ChEMBL document CHEMBL1201862, “PubChem BioAssay data set” (2004).
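Where inhibition never reached the appropriate level, the endpoint shown equals the highest concentration tested. Otherwise, values were interpolated linearly from a five-concentration, 48-hour dose response in 96-well plates. GI50 marks 50% less growth.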 Activity calls are given as the source filed them. Rule as the data show it: active = GI50 up to about 1.1 µM and inactive = higher.

Key:
Experiment in all cases: NCI anticancer screen, dose series, 48 h
786-0 = system: 786-0
A549 = system: A549
ACHN = system: ACHN
BT-549 = system: BT-549
CAKI-1 = system: CAKI-1
CCRF-CEM = system: CCRF-CEM
COLO 205 = system: COLO 205
DU-145 = system: DU-145
EKVX = system: EKVX
HCC 2998 = system: HCC 2998
HCT-116 = system: HCT-116
HCT-15 = system: HCT-15
HL-60 = system: HL-60
HOP-62 = system: HOP-62
HOP-92 = system: HOP-92
HT-29 = system: HT-29
Hs-578T = system: Hs-578T
IGROV-1 = system: IGROV-1
K562 = system: K562
KM12 = system: KM12
LOX IMVI = system: LOX IMVI
M14 = system: M14
MCF7 = system: MCF7
MDA-MB-231 = system: MDA-MB-231
MDA-MB-435 = system: MDA-MB-435
MDA-N = system: MDA-N
MOLT-4 = system: MOLT-4
Malme-3M = system: Malme-3M
NCI-H226 = system: NCI-H226
NCI-H23 = system: NCI-H23
NCI-H460 = system: NCI-H460
NCI-H522 = system: NCI-H522
NCI/ADR-RES = system: NCI/ADR-RES
OVCAR-3 = system: OVCAR-3
OVCAR-4 = system: OVCAR-4
OVCAR-5 = system: OVCAR-5
OVCAR-8 = system: OVCAR-8
PC-3 = system: PC-3
RPMI-8226 = system: RPMI-8226
RXF 393 = system: RXF 393
SF-268 = system: SF-268
SF-295 = system: SF-295
SF-539 = system: SF-539
SK-MEL-2 = system: SK-MEL-2
SK-MEL-5 = system: SK-MEL-5
SK-OV-3 = system: SK-OV-3
SN12C = system: SN12C
SNB-19 = system: SNB-19
SR = system: SR
SW-620 = system: SW-620
T47D = system: T47D
TK-10 = system: TK-10
U-251 = system: U-251
UACC-257 = system: UACC-257
UACC-62 = system: UACC-62
UO-31 = system: UO-31
SK-MEL-28 = system: SK-MEL-28
SNB-75 = system: SNB-75

`O=C1C(Cl)C(c2cccc(Br)c2)N1c1c(O)c(Cl)cc(Br)c1Cl` (configuration not stated) was tested, and the GI50 (786-0) was 23.4 µM (inactive), the GI50 (A549) was 17.3 µM (inactive) and the GI50 (ACHN) was 15.2 µM (inactive). For the same molecule, the GI50 (BT-549) was 25.8 µM (inactive), the GI50 (CAKI-1) was 19.3 µM (inactive) and the GI50 (CCRF-CEM) was 14.6 µM (inactive). For the same molecule, the GI50 (COLO 205) was 8.63 µM (inactive), the GI50 (DU-145) was 14.9 µM (inactive) and the GI50 (EKVX) was 17 µM (inactive). The GI50 (HCC 2998) was 11.1 µM (inactive), the GI50 (HCT-116) was 14.5 µM (inactive) and the GI50 (HCT-15) was 2.32 µM. For the same molecule, the GI50 (HL-60) was 26.4 µM (inactive), the GI50 (HOP-62) was 13.8 µM (inactive) and the GI50 (HOP-92) was 6.93 µM (inactive). For the same molecule, the GI50 (HT-29) was 5.81 µM (inactive), the GI50 (Hs-578T) was 9.46 µM (inactive) and the GI50 (IGROV-1) was 1.25 µM (inactive). For the same molecule, the GI50 (K562) was 15.9 µM (inactive), the GI50 (KM12) was 16.7 µM (inactive) and the GI50 (LOX IMVI) was 14.5 µM (inactive). The GI50 (M14) was 13.9 µM (inactive), the GI50 (MCF7) was 12.1 µM (inactive) and the GI50 (MDA-MB-231) was 17 µM (inactive). The GI50 (MDA-MB-435) was 15 µM (inactive), the GI50 (MDA-N) was 18.5 µM (inactive) and the GI50 (MOLT-4) was 13 µM (inactive). For the same molecule, the GI50 (Malme-3M) was 19.1 µM (inactive), the GI50 (NCI-H226) was 18.2 µM (inactive) and the GI50 (NCI-H23) was 16.6 µM (inactive). The GI50 (NCI-H460) was 14.1 µM (inactive), the GI50 (NCI-H522) was 14.1 µM (inactive) and the GI50 (NCI/ADR-RES) was 23.8 µM (inactive). The GI50 (OVCAR-3) was 16.1 µM (inactive), the GI50 (OVCAR-4) was 12.3 µM (inactive) and the GI50 (OVCAR-5) was 26.7 µM (inactive). For the same molecule, the GI50 (OVCAR-8) was 30.3 µM (inactive), the GI50 (PC-3) was 18 µM (inactive) and the GI50 (RPMI-8226) was 14.4 µM (inactive). For the same molecule, the GI50 (RXF 393) was 10.9 µM (inactive), the GI50 (SF-268) was 14.8 µM (inactive) and the GI50 (SF-295) was 17.4 µM (inactive). The GI50 (SF-539) was 15.6 µM (inactive), the GI50 (SK-MEL-2) was 7.08 µM (inactive) and the GI50 (SK-MEL-5) was 14.2 µM (inactive). For the same molecule, the GI50 (SK-OV-3) was 18.3 µM (inactive), the GI50 (SN12C) was 14.7 µM (inactive) and the GI50 (SNB-19) was 1.38 µM (inactive). For the same molecule, the GI50 (SR) was 20.4 µM (inactive), the GI50 (SW-620) was 19.3 µM (inactive) and the GI50 (T47D) was 15.2 µM (inactive). The GI50 (TK-10) was 19 µM (inactive), the GI50 (U-251) was 12.7 µM (inactive) and the GI50 (UACC-257) was 10.8 µM (inactive). The GI50 (UACC-62) was 14.5 µM (inactive) and the GI50 (UO-31) was 16.8 µM (inactive).

`CC(C)(C)c1ccc(O)c(C(O)c2ccccn2)c1` (configuration not stated) was tested, and the GI50 (786-0) was 61.8 µM (inactive), the GI50 (A549) was 98.2 µM (inactive) and the GI50 (ACHN) was > 100 µM (inactive). For the same molecule, the GI50 (BT-549) was > 100 µM (inactive), the GI50 (CAKI-1) was > 100 µM (inactive) and the GI50 (CCRF-CEM) was 38.2 µM (inactive). The GI50 (COLO 205) was > 100 µM (inactive), the GI50 (DU-145) was > 100 µM (inactive) and the GI50 (EKVX) was 54.1 µM (inactive). For the same molecule, the GI50 (HCC 2998) was 34.4 µM (inactive), the GI50 (HCT-116) was 61.4 µM (inactive) and the GI50 (HCT-15) was 35.4 µM. The GI50 (HL-60) was 45.1 µM (inactive), the GI50 (HOP-62) was > 100 µM (inactive) and the GI50 (HT-29) was > 100 µM (inactive). The GI50 (Hs-578T) was 91.2 µM (inactive), the GI50 (IGROV-1) was > 10 µM (inactive) and the GI50 (K562) was 42.9 µM (inactive). For the same molecule, the GI50 (KM12) was 94 µM (inactive), the GI50 (LOX IMVI) was 54.8 µM (inactive) and the GI50 (MCF7) was 77.8 µM (inactive). For the same molecule, the GI50 (MDA-MB-231) was > 100 µM (inactive), the GI50 (MDA-MB-435) was > 100 µM (inactive) and the GI50 (MDA-N) was > 100 µM (inactive). For the same molecule, the GI50 (MOLT-4) was 54.2 µM (inactive), the GI50 (Malme-3M) was 37.6 µM (inactive) and the GI50 (NCI-H226) was 85.1 µM (inactive). For the same molecule, the GI50 (NCI-H23) was 56.1 µM (inactive), the GI50 (NCI-H460) was 48.5 µM (inactive) and the GI50 (NCI-H522) was 68.7 µM (inactive). The GI50 (NCI/ADR-RES) was 48 µM (inactive), the GI50 (OVCAR-3) was > 100 µM (inactive) and the GI50 (OVCAR-5) was 31.5 µM (inactive). For the same molecule, the GI50 (OVCAR-8) was > 100 µM (inactive), the GI50 (PC-3) was 86.1 µM (inactive) and the GI50 (RPMI-8226) was 58.5 µM (inactive). The GI50 (RXF 393) was 66.8 µM (inactive), the GI50 (SF-268) was > 100 µM (inactive) and the GI50 (SF-295) was 57.5 µM (inactive). The GI50 (SF-539) was > 100 µM (inactive), the GI50 (SK-MEL-28) was > 100 µM (inactive) and the GI50 (SN12C) was 74 µM (inactive). The GI50 (SNB-19) was > 100 µM (inactive), the GI50 (SNB-75) was > 100 µM (inactive) and the GI50 (SR) was 70.1 µM (inactive). For the same molecule, the GI50 (SW-620) was > 100 µM (inactive), the GI50 (T47D) was 34.9 µM (inactive) and the GI50 (TK-10) was > 100 µM (inactive). The GI50 (U-251) was 46.1 µM (inactive), the GI50 (UACC-62) was 2.24 µM (inactive) and the GI50 (UO-31) was 39.7 µM (inactive).
